Measured values from patent US20260069643A1, “COMBINATIONS COMPRISING VITAMIN B2 AND LACTOBACILLUS RHAMNOSUS” (DSM IP Assets B.V., priority 2022, published 2026).

How the values were obtained:
Verrucomicrobia = assay: Long-term SHIME fermentation (colon model), 16S rRNA gene sequencing and flow cytometry: abundance of Verrucomicrobia; details: FIG. 1, mucus of the transverse colon, end of three-week treatment vs end of control period (n=3), probiotic 1*10^10 CFU/reactor, vitamin B2 10 mg/day, significance p<0.05
Description: (§1) The typical reactor setup of the SHIME®, representing the gastrointestinal tract of the adult human, was described by Molly et al. (1993) Applied Microbiology and Biotechnology 39(2):254-258. Inoculum preparation, retention time, pH, temperature settings and reactor feed composition were previously described by Possemiers et al. (2004) FEMS Microbiol Ecol. 49(3):495-507. Compared to the typical setup of the SHIME, the long-term SHIME experiment used for this example included some adaptations. In one reactor, at first, the conditions of the stomach were simulated, before being changed by the computer to conditions simulating the small intestine. […]
(§2) Samples for quantitative 16S-targeted Illumina sequencing were collected 3×/week during the last week of the control and treatment period. […] The obtained high-resolution proportional phylogenetic information (i.e., proportional abundances (%)) was combined with an accurate quantification of total bacterial cells via flow cytometry to obtain quantitative data at phylum, family, and species level. […] Samples were analyzed on a BD Facsverse (BDBiosciences, Erembodegem, Belgium) using the high-flowrate setting and bacteria were separated from medium debris and signal noise by applying a threshold level of 200 on the SYTO channel. […]

Akkermansiaceae = assay: Long-term SHIME fermentation (colon model), 16S rRNA gene sequencing and flow cytometry: abundance of Akkermansiaceae; details: FIG. 2, mucus of the transverse colon, end of three-week treatment vs end of control period (n=3), probiotic 1*10^10 CFU/reactor, vitamin B2 10 mg/day, significance p<0.05
Description: as §1, §2

Akkermansia muciniphila = assay: Long-term SHIME fermentation (colon model), 16S rRNA gene sequencing and flow cytometry: abundance of Akkermansia muciniphila; details: FIG. 3, mucus of the transverse colon, end of three-week treatment vs end of control period (n=3), probiotic 1*10^10 CFU/reactor, vitamin B2 10 mg/day, significance p<0.05
Description: as §1, §2

Lactobacillus rhamnosus GG
did not significantly change: abundance of Verrucomicrobia compared to the control (Verrucomicrobia) | abundance of Akkermansiaceae compared to the control (Akkermansiaceae) | abundance of Akkermansia muciniphila compared to the control (Akkermansia muciniphila)
